Patent publication US9388215B2, “Compositions and methods of using islet neogenesis peptides and analogs thereof” (SHENZHEN HIGHTIDE BIOPHARMACEUTICAL, LTD., priority 2013, dated 2016)
Ends that are not written are not given here.

Experiments:
normal C57BL/6J mice = experiment: Induction of small β-cell clusters in normal C57BL/6J mice (islet size distribution); assay type: in vivo, mouse; settings: normal mice
Experimental: After a 1-week acclimation, C57BL/6J female mice were randomly divided into 4 groups. The two control groups received either 10 mL/kg sterile normal saline (n=4) or scrambled peptide (Peptide 3, 25 mg/kg) (n=5) via subcutaneous injection for 10 days. The other two groups received INGAP-PP (Peptide 1) or INGAP-PP analog Peptide 7 at a dose of 25 mg/kg per day respectively (n=7 per group) for the same period. Body weight and 6 hour fasting blood glucose were measured before treatment and after the last dosing of treatment. Plasma and pancreatic insulin were also measured at the end of the study. On day 11, the pancreas was removed from each animal, cleared of fat and lymph nodes, weighed, and fixed in 10% neutral buffered formalin (NBF) for no longer than 24 hours before processing for morphometric analysis.
Immunohistochemistry analysis was used to determine pancreatic islet size distribution.

[1] = Peptide stability in mouse plasma; assay type: in vitro ADME; settings: 100 μg/mL, 37° C.; FIG. 3, 5, 14
Experimental: (§1) The stability of peptides was also tested in mouse and human plasma. Briefly, a certain amount of peptides and eucatropine powder (positive control) was accurately weighed. Test compounds were dissolved in 50% methanol-water solution and diluted to 20 mg/mL, and eucatropine was dissolved in dimethylsulfoxide (DMSO) and diluted to 10 mM, as a stock solution. Eucatropine stock solution was diluted to 0.2 mM with DMSO as a working solution. A stop reagent was prepared containing 200 ng/mL midazolam and tolbutamide in acetonitrile. A volume of 300 μL of stop solution was added to each well of a 96-well deep-well plate placed on ice beforehand.
For the stability studies, peptides and eucatropine were spiked into plasma respectively, mixed well, and then 100 μL of each mixture solution was transferred into the pre-cooled stop reagent as 0 time point sample. The remaining mixtures were incubated in a 37° C. water bath with shaking at 100 rpm (n=2). The final incubation concentration was […] for eucatropine and 100 μg/mL for all test compounds.
(§2) At desired time points, 100 μL of incubation mixture was transferred to the stop reagent to precipitate proteins. Samples were vortexed and centrifuged at RCF 5000×g for 10 minutes, and supernatant was transferred to a test plate. The samples were analyzed by LC-MS/MS.
(§3) Slope was calculated by plotting the natural logarithm of the percentage of remaining amount of test compounds and time, and T1/2 was calculated in accordance with the following formula.
For stability in mouse plasma, the incubation time was 0, 5, 15, 30 and 60 min for Peptide 1 and eucatropine; 0, 15, 30, 60, 120, 240 and 480 min for Peptide 12, Peptide 16 and Peptide 29.
In another stability study in mouse plasma, the incubation time was 0, 30, 60 and 120 min for Peptide 2 and eucatropine; 0, 30, 60, 120, 240 and 960 min for Peptide 52 and Peptide 54.
as §1, with “tested in rat, mouse and” for “tested in mouse and”
(§4) For the stability studies, peptides and eucatropine were spiked into plasma respectively, mixed well, and then 100 μL of each mixture solution was transferred into the pre-cooled stop reagent as 0 time point sample. The remaining mixtures were incubated in a 37° C. water bath with shaking at 100 rpm (n=2). The final incubation concentration was 1 μM for eucatropine and 100 μg/mL for all test compounds.
For stability in mouse plasma, the incubation time was 0, 15, 30, 60 and 120 min for Peptide 1 and eucatropine; 0, 15, 30, 60, 120, and 240 min for Peptide 31.

[2] = Peptide stability in rat plasma; assay type: in vitro ADME; settings: 100 μg/mL, 37° C.; FIG. 12, 13
Experimental: as §1, with “tested in rat, mouse and” for “tested in mouse and”
as §4, §2, §3
For stability in rat plasma, the incubation time was 0, 15, 30, 60 and 120 min for Peptide 1 and eucatropine, and 0, 15, 30, 60, 120, and 240 min for Peptide 12, Peptide 16, Peptide 29 and Peptide 31.
In another stability study in rat plasma, the incubation time was 0, 30, 60 120 and 240 min for Peptide 2, Peptide 52, Peptide 64 and eucatropine.

pancreatic islets = experiment: Glucose-stimulated insulin secretion (GSIS) of isolated islets; assay type: cell-based, rat; settings: 12.0 mM glucose; 10 μg/mL peptide or 100 nM GLP-1; 60 min; FIG. 8
Experimental: The pancreases were procured from male adult Sprague-Dawley (SD) rats. After 7 days acclimation, the animals were sacrificed by cervical dislocation and the entire pancreas was removed and digested with collagenase to isolate islets. After digestion, islets were maintained at 37° C. in RPMI 1640 (Carlsbad Calif., USA) pH 7.4, containing 10% (v/v) fetal calf serum, 1% penicillin/streptomycin, and 10 mM glucose in a humid atmosphere (5% CO2/95% O2), without the addition of any compound (control), or with the addition of 100 nM glucagon like peptide-1 (GLP-1); or 10 μg/mL Peptide 1, Peptide 12, or Peptide 16, as summarized in Table 4 below. Cultured islets were rinsed in Krebs-Ringer bicarbonate buffer (KRB), pH 7.4, previously gassed with a mixture of CO2/O2 (5/95%), and pre-incubated in 1.0 ml of KRB containing 0.5% (w/v) BSA and 1.5 mM glucose at 37° C. for 45 min. After this period, groups of 5 islets were incubated in 0.6 ml KRB with the addition of 1.5 or 12.0 mM glucose, with or without the addition of peptides for 60 min. At the end of the incubation period, aliquots of the medium were collected for insulin quantitation.

Substance | stability in mouse plasma [1] | stability in rat plasma [2] | also measured
H-SHPNGSGTIGLHDPL-OH [Peptide 3, H-SHPNGSGTIGLHDPL-OH] |  |  | effect on body weight, blood glucose, plasma insulin, pancreas insulin, pancreas weight (normal C57BL/6J mice; 25 mg/kg per day sc for 10 days, compared to saline group): did not affect body weight, blood glucose, plasma insulin, pancreas insulin, or pancreas weight; all parameters measured, scrambled peptide versus normal saline (normal C57BL/6J mice; 25 mg/kg, 10 days): no difference
Ac-IGLHDPTQGTEPNGE-OH [Peptide 54, Ac-IGLHDPTQGTEPNGE-OH] | exhibited good stability in mouse plasma and were significantly more stable than HIP |  | 
Ac-IGLHDPTQGTEPAGE-NH2 [Peptide 62, Ac-IGLHDPTQGTEPAGE-NH2] |  | exhibited good stability in rat plasma and were significantly more stable than HIP | 
GLP-1: Glucagon like peptide-1, 100 nM, included as a positive control in GSIS (HAEGTFTSDVSSYLEGQAAKEFIAWLVKGR; ends and bridges not checked; UniProt P01275 98-127, looked up) [reference compound] |  |  | glucose-stimulated insulin release vs islets without peptide (pancreatic islets): released significantly more insulin than those cultured without the addition of peptides
Ac-IGLHDPTQGTEPAGE-OH [Peptide 52, Ac-IGLHDPTQGTEPAGE-OH] | exhibited good stability in mouse plasma and were significantly more stable than HIP | exhibited good stability in rat plasma and were significantly more stable than HIP | 
